Source: the NIST ThermoML archive (doi:10.1021/je8002095)

How the values were obtained:
[1] = for kinematic viscosity / mass density / speed of sound: 101.33 kPa, Liquid
[2] = molar heat capacity at constant pressure; settings: 101.33 kPa, Liquid, differential scanning calorimeter
[3] = refractive index (Na D-line) (dimensionless); settings: 101.33 kPa, Liquid

CCCCCCCC[n+]1cccc(C)c1.F[B-](F)(F)F [N-octyl-3-methylpyridinium tetrafluoroborate]
Settings | kinematic viscosity, [1] [m2/s] | mass density, [1] [kg/m3] | molar heat capacity at constant pressure, [2] [J/K/mol] | refractive index, [3] | speed of sound, [1] [m/s] | surface tension liquid-gas, [1] [mN/m]
278.15 K | 0.00248 | 1106.4 | 433.8 | – | 1571.9 | 39.82
280.65 K | 0.00193 | 1105 | 435.7 | – | 1564.9 | 39.28
283.15 K | 0.00154 | 1103.6 | 437.4 | 1.45978 | 1557.7 | 38.7
285.65 K | 0.00123 | 1102.1 | 439.4 | 1.45907 | 1549.2 | 38.3
288.15 K | 0.00102 | 1100.7 | 441.4 | 1.45835 | 1541.2 | 37.91
290.65 K | 0.000817 | 1099.4 | 443.7 | 1.45764 | 1533.5 | 37.52
293.15 K | 0.000681 | 1097.7 | 446.1 | 1.45691 | 1526.3 | 37.19
295.65 K | 0.000558 | 1096.3 | 448.4 | 1.4562 | 1518.7 | 36.81
298.15 K | 0.000462 | 1094.5 | 450.5 | 1.45547 | 1511.4 | 36.51
300.65 K | 0.000388 | 1093.3 | 452.8 | 1.45477 | 1505.4 | 36.23
303.15 K | 0.000327 | 1091.5 | 455 | 1.45405 | 1498.1 | 35.94
305.65 K | 0.00028 | 1089.7 | 457.2 | 1.45333 | 1491.2 | 35.67
308.15 K | 0.000238 | 1088.1 | 459.2 | 1.45261 | 1484.6 | 35.46
310.65 K | 0.000205 | 1086.3 | 461.3 | 1.4519 | 1478.1 | 35.22
313.15 K | 0.000177 | 1084.7 | 463.3 | 1.45121 | 1472.3 | 35.02
315.65 K | 0.000156 | 1083.1 | 465.1 | 1.45047 | 1465.7 | 34.81
318.15 K | 0.000136 | 1081.4 | 467 | 1.44976 | 1459.3 | 34.63
320.65 K | 0.000119 | 1079.8 | 468.7 | 1.44903 | 1453.2 | 34.46
323.15 K | 0.000105 | 1078.3 | 470.3 | 1.44831 | 1446.5 | 34.28
325.65 K | 9.27e-05 | 1076.5 | 472 | 1.4476 | 1440.4 | 34.13
328.15 K | 8.22e-05 | 1074.9 | 473.7 | 1.4469 | 1433.6 | 33.98
